Data reported in ChEMBL document CHEMBL5143703, “Discovery of novel chloropyramine-cinnamic acid hybrids as potential FAK inhibitors for intervention of metastatic triple-negative breast cancer” (Bioorg Med Chem, 2022).
Activity calls are given as the source filed them. The rule behind the calls is not given here.

Tests used:
[1] = tested on: MDA-MB-231; assay: Antiproliferative activity against human MDA-MB-231 cells assessed as inhibition of cell proliferation at 10 uM incubated for 72 hrs by MTT assay relative to control; type: functional
[2] = tested on: MDA-MB-231; assay: Antiproliferative activity against human MDA-MB-231 cells assessed as inhibition of cell proliferation incubated for 72 hrs by MTT assay; type: functional, cell-based; conditions: MDA-MB-231, 72 h
[3] = tested on: MDA-MB-157; assay: Antiproliferative activity against human MDA-MB-157 cells assessed as inhibition of cell proliferation incubated for 72 hrs by MTT assay; type: functional, cell-based; conditions: MDA-MB-157, 72 h
[4] = tested on: MDA-MB-453; assay: Antiproliferative activity against human MDA-MB-453 cells assessed as inhibition of cell proliferation incubated for 72 hrs by MTT assay; type: functional, cell-based; conditions: MDA-MB-453, 72 h
[5] = Cytotoxicity against human MCF-10A cells assessed as inhibition of cell proliferation incubated for 72 hrs by MTT assay; type: toxicity, cell-based
[6] = tested on: MDA-MB-231; assay: Potency index, ratio of chloropyramine IC50 to test compound IC50 for antiproliferative activity against human MDA-MB-231 cells assessed as inhibition of cell proliferation incubated for 72 hrs by MTT assay; type: functional
[7] = Potency index, ratio of test compound IC50 to chloropyramine IC50 for cytotoxicity against human MCF-10A cells assessed as inhibition of cell proliferation incubated for 72 hrs by MTT assay; type: toxicity, cell-based; conditions: read-out: Ratio IC50
[8] = tested on: MDA-MB-231; assay: Inhibition of cell invasion in human MDA-MB-231 cells assessed as reduction in invasive cells incubated for 24 hrs by crystal violet staining based transwell assay; type: functional; conditions: dose 5-20 µM, DDE = dose-dependent effect
[9] = tested on: MDA-MB-231; assay: Inhibition of cell migration in human MDA-MB-231 cells incubated for 24 hrs by scratch wound healing assay; type: functional, cell-based; conditions: dose 5-20 µM, DDE = dose-dependent effect
[10] = target: Focal adhesion kinase 1 (Homo sapiens) (UniProt Q05397); assay: Inhibition of FAK autophosphorylation at […] in human MDA-MB-231 cells incubated for 72 hrs by Western blot analysis; type: cell-based; conditions: dose 5-20 µM, DDE = dose-dependent effect
[11] = tested on: MDA-MB-231; assay: Inhibition of focal adhesion formation in human MDA-MB-231 cells assessed as reduction in focal adhesion at 20 uM incubated for 72 hrs by vinculin antibody based immunofluorescence microscopic analysis; type: functional, cell-based
[12] = tested on: MDA-MB-231; assay: Inhibition of stress fibers formation in human MDA-MB-231 cells assessed as reduction in stress fibers at 20 uM incubated for 72 hrs by FITC-Phalloidin staining based immunofluorescence microscopic analysis; type: functional, cell-based
[13] = tested on: MDA-MB-231; assay: Induction of apoptosis in human MDA-MB-231 cells assessed as viable cells at 5 uM incubated for 72 hrs by Annexin V-FITC and PI staining based flow cytometry analysis (reference value: 92.16 %); type: functional; conditions: read-out: Activity
[14] = tested on: MDA-MB-231; assay: Induction of apoptosis in human MDA-MB-231 cells assessed as early apoptotic cells at 5 uM incubated for 72 hrs by Annexin V-FITC and PI staining based flow cytometry analysis (reference value: 1.70 %); type: functional
[15] = tested on: MDA-MB-231; assay: Induction of apoptosis in human MDA-MB-231 cells assessed as late apoptotic cells at 5 uM incubated for 72 hrs by Annexin V-FITC and PI staining based flow cytometry analysis (reference value: 4.98 %); type: functional
[16] = tested on: MDA-MB-231; assay: Induction of apoptosis in human MDA-MB-231 cells assessed as dead cells at 5 uM incubated for 72 hrs by Annexin V-FITC and PI staining based flow cytometry analysis (reference value: 1.16 %); type: functional
[17] = tested on: MDA-MB-231; assay: Induction of apoptosis in human MDA-MB-231 cells assessed as viable cells at 10 uM incubated for 72 hrs by Annexin V-FITC and PI staining based flow cytometry analysis (reference value: 92.16 %); type: functional; conditions: read-out: Activity
[18] = tested on: MDA-MB-231; assay: Induction of apoptosis in human MDA-MB-231 cells assessed as early apoptotic cells at 10 uM incubated for 72 hrs by Annexin V-FITC and PI staining based flow cytometry analysis (reference value: 1.70 %); type: functional
[19] = tested on: MDA-MB-231; assay: Induction of apoptosis in human MDA-MB-231 cells assessed as late apoptotic cells at 10 uM incubated for 72 hrs by Annexin V-FITC and PI staining based flow cytometry analysis (reference value: 4.98 %); type: functional
[20] = tested on: MDA-MB-231; assay: Induction of apoptosis in human MDA-MB-231 cells assessed as dead cells at 10 uM incubated for 72 hrs by Annexin V-FITC and PI staining based flow cytometry analysis (reference value: 1.16 %); type: functional
[21] = tested on: MDA-MB-231; assay: Induction of apoptosis in human MDA-MB-231 cells assessed as viable cells at 20 uM incubated for 72 hrs by Annexin V-FITC and PI staining based flow cytometry analysis (reference value: 92.16 %); type: functional; conditions: read-out: Activity
[22] = tested on: MDA-MB-231; assay: Induction of apoptosis in human MDA-MB-231 cells assessed as early apoptotic cells at 20 uM incubated for 72 hrs by Annexin V-FITC and PI staining based flow cytometry analysis (reference value: 1.70 %); type: functional
[23] = tested on: MDA-MB-231; assay: Induction of apoptosis in human MDA-MB-231 cells assessed as late apoptotic cells at 20 uM incubated for 72 hrs by Annexin V-FITC and PI staining based flow cytometry analysis (reference value: 4.98 %); type: functional
[24] = tested on: MDA-MB-231; assay: Induction of apoptosis in human MDA-MB-231 cells assessed as dead cells at 20 uM incubated for 72 hrs by Annexin V-FITC and PI staining based flow cytometry analysis (reference value: 1.16 %); type: functional

Chain of Focal adhesion kinase 1 (Homo sapiens) (Q05397 2-1052 limits assumed): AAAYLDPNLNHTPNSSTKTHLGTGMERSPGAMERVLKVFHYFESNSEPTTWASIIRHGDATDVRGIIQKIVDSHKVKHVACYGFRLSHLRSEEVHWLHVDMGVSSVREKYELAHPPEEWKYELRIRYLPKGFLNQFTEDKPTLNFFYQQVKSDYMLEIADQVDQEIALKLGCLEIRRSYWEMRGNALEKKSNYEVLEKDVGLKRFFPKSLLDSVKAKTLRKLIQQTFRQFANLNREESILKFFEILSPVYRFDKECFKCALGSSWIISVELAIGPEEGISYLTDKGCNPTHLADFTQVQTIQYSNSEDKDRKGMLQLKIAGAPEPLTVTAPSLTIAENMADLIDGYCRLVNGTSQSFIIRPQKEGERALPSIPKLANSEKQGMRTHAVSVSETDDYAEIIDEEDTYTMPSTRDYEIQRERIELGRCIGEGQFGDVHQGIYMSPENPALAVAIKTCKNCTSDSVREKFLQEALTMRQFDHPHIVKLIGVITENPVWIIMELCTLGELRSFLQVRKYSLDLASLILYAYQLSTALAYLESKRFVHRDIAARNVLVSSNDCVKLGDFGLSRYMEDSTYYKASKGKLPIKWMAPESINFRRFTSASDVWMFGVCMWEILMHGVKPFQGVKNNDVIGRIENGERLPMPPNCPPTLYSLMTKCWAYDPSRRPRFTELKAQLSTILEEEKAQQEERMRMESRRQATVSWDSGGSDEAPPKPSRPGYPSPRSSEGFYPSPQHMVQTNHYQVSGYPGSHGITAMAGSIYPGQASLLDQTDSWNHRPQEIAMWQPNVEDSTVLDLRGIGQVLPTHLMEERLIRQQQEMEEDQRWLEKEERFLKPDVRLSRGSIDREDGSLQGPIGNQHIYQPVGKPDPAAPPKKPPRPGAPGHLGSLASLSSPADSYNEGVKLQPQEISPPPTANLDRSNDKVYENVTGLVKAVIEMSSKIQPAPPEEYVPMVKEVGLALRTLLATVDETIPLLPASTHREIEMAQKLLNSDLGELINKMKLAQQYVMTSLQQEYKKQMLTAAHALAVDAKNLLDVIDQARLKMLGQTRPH

Row | SMILES | inhibition at 10 µM [1] [%] | IC50 [2] [µM] | IC50 [3] [µM] | IC50 [4] [µM] | IC50 at 72 h [5] [µM] | also measured
1 | COc1cc(/C=C/C(=O)N(CCN(C)C)c2ccccn2)cc(OC)c1OC | > 50 | 9.31 | 21.4 | 15.5 | 45.5 | –
2 | CN(C)CCN(Cc1ccc(Cl)cc1)c1ccccn1 [CHLOROPYRAMINE] | – | 49.7 | 43.1 | > 60 | > 60 | –
3 | CN(C)CCN(C(=O)/C=C/c1c[nH]c2ccccc12)c1ccccn1 | > 50 | 8.37 | 12.1 | 9.07 | 40.6 | Ratio IC50 [6]: 6; selectivity ratio at 72 h [7]: 5; inhibition [8]: Dde; inhibition [9]: Dde; inhibition [10]: Dde; inhibition [11]: Active; inhibition [12]: Active; viability at 5 µM [13]: 83%; Activity [14]: 3.05%; Activity [15]: 10.05%; Activity [16]: 3.88%; viability at 10 µM [17]: 63.8%; Activity [18]: 2%; Activity [19]: 30.24%; Activity [20]: 3.98%; viability at 20 µM [21]: 52.6%; Activity [22]: 2.01%; Activity [23]: 39.58%; Activity [24]: 5.83%
4 | COc1cc(/C=C/C(=O)N(CCN(C)C)c2ccccn2)ccc1O | > 50 | 13.5 | 14.2 | 15.9 | > 60 | –
5 | Cc1nc(C)c(/C=C/C(=O)N(CCN(C)C)c2ccccn2)nc1C | > 50 | 14 | 9.68 | 21.2 | > 60 | –
